# From the supplement of paper PMC10307832
# What was measured:
# Test in all cases: relative viability (nuclei count vs DMSO), 5 days (fraction); higher = more cells survive
# kb NB 142-70 = compound: C1CSC2=C(C(=O)N1)SC3=C2C=C(C=C3)O [kb NB 142-70]
# In short: (§1)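 Vehicle-anchored 1536-well plates of lung cancer cell lines, held overnight at 37 °C, were pinned with five library-drug doses (not always all listed) spaced by √10. No medium change followed over the next 5 days, after which the cells were fixed, permeabilised and Hoechst-stained together and imaged at 4×. Nuclei were counted with MetaXpress, and viability is treated-well nuclei over vehicle-well nuclei, taken as a median across plates. Plates passed with control CV below 25% and at least one doubling.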
# [1] = compound: NCC(=O)Nc1ccc(-n2nc(C(F)(F)F)cc2-c2ccc3c(ccc4ccccc43)c2)cc1
# In short: as §1
# kb NB 142-70 + Foretinib = compound: C1CSC2=C(C(=O)N1)SC3=C2C=C(C=C3)O [kb NB 142-70] + COc1cc2c(Oc3ccc(NC(=O)C4(C(=O)Nc5ccc(F)cc5)CC4)cc3F)ccnc2cc1OCCCN1CCOCC1 [Foretinib] (partner 0.25 µM)
# In short: (§2)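 One day after seeding in 1536-well plates, lung cancer cell lines were dosed by pin tool. Dosing was either single-drug or a fixed anchor-drug dose plus five library-drug doses (not always all listed) in √10 steps. After 5 days, nuclei were stained in one fix-and-stain step and counted on 4× images, and relative viability is the nuclei count of treated wells over that of vehicle wells, given as the median of duplicate plates.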
# kb NB 142-70 + Lapatinib = compound: C1CSC2=C(C(=O)N1)SC3=C2C=C(C=C3)O [kb NB 142-70] + CS(=O)(=O)CCNCc1ccc(-c2ccc3ncnc(Nc4ccc(OCc5cccc(F)c5)c(Cl)c4)c3c2)o1 [Lapatinib] (partner 2 µM)
# In short: as §2
# [2] = compound: NCC(=O)Nc1ccc(-n2nc(C(F)(F)F)cc2-c2ccc3c(ccc4ccccc43)c2)cc1 + Cc1nc(NC(=O)N2CCC[C@H]2C(N)=O)sc1-c1ccnc(C(C)(C)C(F)(F)F)c1 [Alpelisib] (partner 2 µM)
# In short: as §2
cell line,measurement,setting,value
UMC-11,relative viability,kb NB 142-70; 0.1 µM,1.03
same,relative viability,kb NB 142-70; 1 µM,0.973
same,relative viability,kb NB 142-70; 3.162 µM,0.572
same,relative viability,[1]; 0.02 µM,0.93
same,relative viability,[1]; 0.06325 µM,1
same,relative viability,[1]; 0.2 µM,1.05
same,relative viability,[1]; 0.6325 µM,1.01
same,relative viability,[1]; 2 µM,0.931
same,relative viability,kb NB 142-70 + Foretinib; first compound 0.1 µM,0.934
same,relative viability,kb NB 142-70 + Foretinib; first compound 1 µM,0.92
same,relative viability,kb NB 142-70 + Foretinib; first compound 3.162 µM,0.64
same,relative viability,kb NB 142-70 + Lapatinib; first compound 0.1 µM,0.964
same,relative viability,kb NB 142-70 + Lapatinib; first compound 1 µM,0.836
same,relative viability,kb NB 142-70 + Lapatinib; first compound 3.162 µM,0.535
same,relative viability,[2]; first compound 0.02 µM,0.985
same,relative viability,[2]; first compound 0.06325 µM,0.968
same,relative viability,[2]; first compound 0.2 µM,1.03
same,relative viability,[2]; first compound 0.6325 µM,0.958
same,relative viability,[2]; first compound 2 µM,1.1
